Experimental data reported in US8785638B2, “Thieno [2, 3-B] pyridine derivatives as viral replication inhibitors” (Katholieke Universiteit Leuven, priority 2009, dated 2014).
Where two headings read alike, the source gives them in different places.

Experiments:
[1] = Cytotoxicity in mock-infected MT-4 cells (MTT); assay type: cell-based; conditions: human, 50% cytotoxic concentration
In short: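 MT-4 cells (HTLV-1-transformed T4 line) in RPMI 1640 with 10% FCS, mock-infected alongside HIV-infected cultures. Viability read by in situ MTT reduction, OD 540 nm. CC50 is the compound concentration cutting mock-infected control absorbance by 50%.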

[2] = molecular target: LEDGF/p75-HIV-1 integrase interaction (Human immunodeficiency virus type 1 group M subtype B (isolate HXB2) (HIV-1), UniProt P04585); assay: AlphaScreen assay of LEDGF-integrase interaction inhibition; assay type: binding
In short: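 Compounds (0.1 up to 100 μM) pre-incubated 30 min at 4° C. with 300 nM His6-integrase in pH 7.4 Tris buffer, then 100 nM flag-LEDGF/p75 added for 1 h at 4° C. Ni-chelate acceptor and anti-flag donor beads (20 μg/ml each) were incubated 1 h at 30° C. before reading AlphaScreen emission.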

[3] = system: HIV-1 (IIIB), HIV-1 (NL4.3); assay: microbe, parasite or virus in culture; assay type: cell-based; conditions: for EC50: Human immunodeficiency virus 1, IIIB, MT4, MT-4 cells, 50% protection against HIV-induced cytopathogenic effect, MTT; for SI: selectivity index, ratio of CC50 to EC50
In short: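 MT-4 cells infected with HIV-1 IIIB or NL4.3; protection from virus-induced cytopathic effect measured by MTT reduction, OD 540 nm. EC50 is the dose giving 50% protection; CC50 is the concentration cutting mock-infected absorbance by 50%; SI = CC50/EC50.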

[4] = His6-tagged integrase 300 nM, flag-LEDGF/p75 100 nM, read-out: Alphascreen IC50

| Compound | CC50 [1] [µM] | IC50 [2, 4] [µM] | EC50 [3] [µM] | SI [3] | IC50 [2] [µM] |
| --- | --- | --- | --- | --- | --- |
| CCCC(C(=O)NC#N)c1c(C)nc2sc3c(c2c1-c1ccc(C)cc1)CCCC3 (stereo not drawn) [Cpd 166, N-cyano-2-[2-Methyl-4-p-tolyl-5,6,7,8-tetrahydro[1]benzothieno[2,3-b]pyridin-3-yl]pentanamide] | 131 | 3 | > 131 |  |  |
| CCCC(C(N)=O)c1c(C)nc2sc3c(c2c1-c1ccc(C)cc1)CCCC3 (stereo not drawn) [Cpd 167, 2-[2-Methyl-4-p-tolyl-5,6,7,8-tetrahydro[1]benzothieno[2,3-b]pyridin-3-yl]pentanamide] | 26.1 | 63.7 | > 26.1 |  |  |
| Cc1ccc(-c2c(C(OC(C)(C)C)C(=O)O)c(C)nc3sc4c(c23)CCCC4)cc1 (stereo not drawn) [Cpd 170, 2-[2-Methyl-4-p-tolyl-5,6,7,8-tetrahydro[1]benzothieno[2,3-b]pyridin-3-yl]-2-tert-butoxyacetic acid] | 116 | 0.05 | 0.0263 | 4429 |  |
| CCOC(C(=O)O)c1c(C)nc2sc3c(c2c1-c1ccc(C)cc1)CCCC3 (stereo not drawn) [Cpd 171, 2-[2-Methyl-4-p-tolyl-5,6,7,8-tetrahydro[1]benzothieno[2,3-b]pyridin-3-yl]-2-ethoxyacetic acid] | 130 | 1.21 | 0.112 | 1166 |  |
| Cc1nc2sc3c(c2c(-c2cccnc2)c1C(OC(C)(C)C)C(=O)O)CCCC3 (stereo not drawn) [Cpd 173, 2-[2-Methyl-4-(pyridin-3-yl)-5,6,7,8-tetrahydro[1]benzothieno[2,3-b]pyridin-3-yl]-2-tert-butoxyacetic acid] | 225 | 5.9 | 4.51 | 50 |  |
| CCCC(c1nnn[nH]1)c1c(C)nc2sc3c(c2c1-c1ccc(C)cc1)CCCC3 (stereo not drawn) [Cpd 175, 2-Methyl-4-(p-tolyl)-3-[1-(1H-tetrazol-5-yl)butyl]-5,6,7,8-tetrahydro[1]benzothieno[2,3-b]pyridine] | 79.2 | < 1 | 8.89 | 9 |  |
| Cc1nc2sc3c(c2c(-c2cnn(C)c2)c1C(OC(C)(C)C)C(=O)O)CCCC3 (stereo not drawn) [Cpd 177, 2-[2-methyl-4-(1-methyl-1H-pyrazol-4-yl)-5,6,7,8-tetrahydro[1]benzothieno[2,3-b]pyridin-3-yl]-2-tert-butoxyacetic acid] | > 212 | 11.7 | 1.17 | >181 |  |
| CCCC(C(=O)O)c1c(CC)nc2sc3c(c2c1-c1ccc(C)cc1)CCCC3 (stereo not drawn) [Cpd 181, 2-[2-ethyl-4-(p-tolyl)-5,6,7,8-tetrahydro[1]benzothieno[2,3-b]pyridin-3-yl]pentanoic acid] | 81 | 8.06 | 2.89 | 28 |  |
| CCCC(c1c(C)nc2sc3c(c2c1-c1ccc(C)cc1)CCCC3)C1SC(=O)NC1=O (stereo not drawn) [Cpd 182] | 27.3 |  | > 27.3 |  | ~80 |
| Cc1ccc(-c2c(C(OC(C)(C)C)C(=O)O)c(C)nc3sc4c(c23)CCCC4)cn1 (stereo not drawn) [Cpd 184, 2-[2-methyl-4-(6-methylpyridin-3-yl)-5,6,7,8-tetrahydro[1]benzothieno[2,3-b]pyridin-3-yl]-2-tert-butoxyacetic acid] | 237 | 3.44 | 0.157 | 1513 |  |
| Cc1nc2sc3c(c2c(-c2ccc4ncsc4c2)c1C(OC(C)(C)C)C(=O)O)CCCC3 (stereo not drawn) [Cpd 186, 2-[2-methyl-4-(benzo[d]thiazol-6-yl)-5,6,7,8-tetrahydro[1]benzothieno[2,3-b]pyridin-3-yl]-2-tert-butoxyacetic acid] | 110 | 0.43 | 0.038 | 2900 |  |
| Cc1nc2sc3c(c2c(-c2ccc4c5c(ccnc25)CCO4)c1C(OC(C)(C)C)C(=O)O)CCCC3 (stereo not drawn) [Cpd 190] | 129 |  | 0.015 | 8401 | 0.37 |
